From US12459951B2, “Compounds that interact with RAS superfamily proteins for treatment of cancers, inflammatory diseases, rasopathies, and fibrotic disease” (SHY Therapeutics, LLC, priority 2022, dated 2025)

What was measured:
[1] = Mouse Liver Microsome Metabolic Stability Assay; format: in vitro ADME; settings: pH 7.4, Mouse liver microsomes, 37° C., NADPH, read-out: t½
Description: Biological Example 10: Assessment of Metabolic Stability in Mouse Liver Microsomes
Metabolic Stability Assay: Microsomal incubations were carried out in 96-well plates in 5 aliquots of 30 μL each (one for each time point). Liver microsomal incubation medium comprised of phosphate buffer (100 mM, pH 7.4), MgCl2 (3.3 mM), NADPH (3 mM), glucose-6-phosphate (5.3 mM), glucose-6-phosphate dehydrogenase (0.67 units/ml) with 0.42 mg of liver microsomal protein per mL. In the control reactions the NADPH-cofactor system was substituted with phosphate buffer. Test compounds (2 μM, final solvent concentration 1.6%) were incubated with microsomes at 37° C., shaking at 100 rpm. Each reaction was performed in duplicates. Five time points over 40 minutes were analyzed. The reactions were stopped by adding 5 volumes of methanol containing internal standard to incubation aliquots, followed by protein sedimentation by centrifuging at 5500 rpm for 4 minutes. Supernatants were analyzed using the HPLC system coupled with tandem mass spectrometer.
The elimination constant (kel), half-life (t1/2) and intrinsic clearance (Clint) were determined in plot of […] versus time, using linear regression analysis:
In order to indicate the quality of the linear regression analysis, the R (correlation coefficient) values are provided. In some cases, the last time point is excluded from the calculations to ensure acceptable logarithmic linearity of decay.
Table 9 show metabolic stability data for selected compounds tested in the Mouse Liver Microsome Metabolic Stability assay described above.

[2] = Kinetic Solubility Assay in pH 7.4 Buffer + 2% DMSO; format: physicochemical; settings: phosphate-buffered saline pH 7.4 with 2% DMSO, aqueous buffer, kinetic from dmso stock, 25° C., two hours
Description: Biological Example 9: Kinetic Solubility
Kinetic solubility assay in pH 7.4 Buffer+2% DMSO (“Kinetic Solubility Assay) was performed according to the following protocol: Briefly, using a 20 mM stock solution of the tested compounds in 100% DMSO, dilutions were prepared to a theoretical concentration of 400 μM in duplicates in phosphate-buffered saline pH 7.4 (138 mM NaCl, 2.7 mM KCl, 10 mM K-phosphate) with 2% final DMSO. The tested compounds dilutions in PBS were further allowed to equilibrate at 25° C. on a thermostatic shaker for two hours and then filtered through HTS filter plates using a vacuum manifold. The filtrates of the test compounds were diluted 2-fold with acetonitrile with 2% DMSO before measuring.
In parallel, using a 20 mM stock solution of the tested compounds in 100% DMSO, dilutions were prepared to theoretical concentrations of 0 μM (blank), 10 μM, 25 μM, 50 μM, 100 μM, and 200 μM in 50% acetonitrile/PBS with 2% final DMSO to generate calibration curves. Ondansetron was used as a reference compound to control proper assay performance. 200 μL of each sample was transferred to a 96-well plate and measured in the 230-550 nm range with a 5 nm step.
The concentrations of compounds in PBS filtrate are calculated using a dedicated Microsoft Excel calculation script. Proper absorbance wavelengths for calculations are selected for each compound manually based on absorbance maximums (absolute absorbance unit values for the minimum and maximum concentration points within the 0-3 OD range). Each final dataset is visually evaluated by the operator, and goodness of fit (R2) is calculated for each calibration curve. The effective range of this assay is approximately 2-400 μM and the compounds returning values close to the upper limit of the range may have higher actual solubility (e.g., 5′-deoxy-5-fluorouridine).
Table 8 show kinetic solubility data for selected compounds tested in the Kinetic Solubility assay described above.

IL6 = test: IL-6 Quantification Assay (ELISA), LPS-stimulated RAW 264.7; format: cell-based; design: inhibition: dose or concentration left out as unconfirmed; settings: Mus musculus, RAW264.7; read-out: IL-6: % inh.
TNF-alpha = TNF-alpha Quantification Assay (ELISA), LPS-stimulated RAW 264.7; format: cell-based; settings: Mus musculus, RAW264.7; at 10 μM; read-out: TNFα: % inh.
Akt phosphorylation = test: Akt Phosphorylation Assay (western blot), Panc-1; format: cell-based, human; settings: at 10 μM, * = activation
Summary of the method: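 Panc-1 (KRas G12D) cells were treated with compound at 10 μM final (0.3% DMSO) for 6 h at 37 °C, or with serial dilutions for IC50. Cells were either serum-starved overnight in 0.5% FBS and then stimulated with 1.5 ng/ml EGF for 15 min, or kept in 10% FBS without stimulation. Akt Ser473 phosphorylation in lysates was read by western blot.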

half-life at 2 µM [1]	solubility at 2 h [2]	Structure (SMILES)	inhibition (IL6)	inhibition at 10 µM (TNF-alpha)	% inh of Akt phosphorylation in Panc-1 (Akt phosphorylation)
> 10 min	< 10 µM	COc1cc(Nc2nc(-c3nccn3C)nn3cc(-c4ccn(C(C)C)n4)c(C)c23)ncn1 [Compound 6, 6-(1-Isopropyl-1H-pyrazol-3-yl)-N-(6-methoxypyrimidin-4-yl)-5-methyl-2-(1-methyl-1H-imidazol-2-yl)pyrrolo[2,1-f][1,2,4]triazin-4-amine]	75 to 100%	25 to 49%	0 (0% inhibition)
	10 to 30 µM	Cc1c(-c2ccn(C)n2)cn2nc(-c3nccn3C)nc(Nc3cc4n(n3)CCC4)c12 [Compound 100, N-(5,6-Dihydro-4H-pyrrolo[1,2-b]pyrazol-2-yl)-5-methyl-2-(1-methyl-1H-imidazol-2-yl)-6-(1-methyl-1H-pyrazol-3-yl)pyrrolo[2,1-f][1,2,4]triazin-4-amine]	50 to 74%	0%	D* (85-100% activation)
> 10 min	> 30 µM	COc1ccnc(Nc2nc(-c3nccn3C)nn3cc(-c4ccn(C)n4)c(C)c23)c1 [Compound 102, N-(4-Methoxypyridin-2-yl)-5-methyl-2-(1-methyl-1H-imidazol-2-yl)-6-(1-methyl-1H-pyrazol-3-yl)pyrrolo[2,1-f][1,2,4]triazin-4-amine]	75 to 100%	25 to 49%	D* (85-100% activation)
	10 to 30 µM	Cc1c(-c2ccn(C)n2)cn2nc(-c3nccn3C)nc(Nc3ccncn3)c12.Cl [Compound 116, 5-Methyl-2-(1-methyl-1H-imidazol-2-yl)-6-(1-methyl-1H-pyrazol-3-yl)-N-(pyrimidin-4-yl)pyrrolo[2,1-f][1,2,4]triazin-4-amine hydrochloride salt]	25 to 49%	0%	D* (85-100% activation)
	> 30 µM	Cc1c(-c2ccn(C)n2)cn2nc(-c3nccn3C)nc(Nc3ccccn3)c12 [Compound 118, 5-Methyl-2-(1-methyl-1H-imidazol-2-yl)-6-(1-methyl-1H-pyrazol-3-yl)-N-(pyridin-2-yl)pyrrolo[2,1-f][1,2,4]triazin-4-amine]	25 to 49%	1 to 24%	D* (85-100% activation)
> 10 min		Cc1c(-c2ccn(C)n2)cn2nc(-c3nccn3C)nc(Nc3cc(OC4CC4)ccn3)c12 [Compound 126, N-(4-Cyclopropoxypyridin-2-yl)-5-methyl-2-(1-methyl-1H-imidazol-2-yl)-6-(1-methyl-1H-pyrazol-3-yl)pyrrolo[2,1-f][1,2,4]triazin-4-amine]	25 to 49%	0%	D* (85-100% activation)
< 10 min		Cc1c(-c2ccn(C)n2)cn2nc(-c3nccn3C)nc(Nc3cc(OC(F)(F)F)ccn3)c12 [Compound 127, 5-Methyl-2-(1-methyl-1H-imidazol-2-yl)-6-(1-methyl-1H-pyrazol-3-yl)-N-(4-(trifluoromethoxy)pyridin-2-yl)pyrrolo[2,1-f][1,2,4]triazin-4-amine]	50 to 74%	0%	D* (85-100% activation)
> 10 min		Cc1c(-c2ccn(C)n2)cn2nc(-c3nccn3C)nc(Nc3cc(OC(F)F)ccn3)c12 [Compound 128, N-(4-(Difluoromethoxy)pyridin-2-yl)-5-methyl-2-(1-methyl-1H-imidazol-2-yl)-6-(1-methyl-1H-pyrazol-3-yl)pyrrolo[2,1-f][1,2,4]triazin-4-amine]	25 to 49%	25 to 49%	D* (85-100% activation)
> 10 min		Cc1c(-c2ccn(C)n2)cn2nc(-c3nccn3C)nc(Nc3cc(OCC(F)(F)F)ccn3)c12 [Compound 129, 5-Methyl-2-(1-methyl-1H-imidazol-2-yl)-6-(1-methyl-1H-pyrazol-3-yl)-N-(4-(2,2,2-trifluoroethoxy)pyridin-2-yl)pyrrolo[2,1-f][1,2,4]triazin-4-amine]	50 to 74%	1 to 24%	C* (46-84% activation)
> 10 min		Cc1c(-c2cccnc2)cn2nc(-c3nccn3C)nc(Nc3ccncn3)c12 [Compound 156, 5-Methyl-2-(1-methyl-1H-imidazol-2-yl)-6-(pyridin-3-yl)-N-(pyrimidin-4-yl)pyrrolo[2,1-f][1,2,4]triazin-4-amine]	1 to 24%	0%	D* (85-100% activation)
		COc1cc(-c2cn3nc(-c4nccn4C)nc(N[C@H]4C[C@@H](OC)C4)c3c2C)ccn1 [Compound 162, N-((1s,3s)-3-Methoxycyclobutyl)-6-(2-methoxypyridin-4-yl)-5-methyl-2-(1-methyl-1H-imidazol-2-yl)pyrrolo[2,1-f][1,2,4]triazin-4-amine]	25 to 49%	25 to 49%	B (26-49% inhibition)
		COc1ccnc(Nc2nc(-c3nccn3C)nn3cc(-c4cnn(C(C)C)c4)c(C)c23)c1 [Compound 165, 6-(1-Isopropyl-1H-pyrazol-4-yl)-N-(4-methoxypyridin-2-yl)-5-methyl-2-(1-methyl-1H-imidazol-2-yl)pyrrolo[2,1-f][1,2,4]triazin-4-amine]	50 to 74%	1 to 24%	D* (85-100% activation)
		COc1ccnc(Nc2nc(-c3nccn3C)nn3cc(-c4cccnc4)c(-c4ccccn4)c23)c1 [Compound 166, N-(4-Methoxypyridin-2-yl)-2-(1-methyl-1H-imidazol-2-yl)-5-(pyridin-2-yl)-6-(pyridin-3-yl)pyrrolo[2,1-f][1,2,4]triazin-4-amine]	75 to 100%	75 to 100%	D* (85-100% activation)
		COc1cc(Nc2nc(-c3nccn3C)nn3cc(-c4cccnc4)c(-c4ccccn4)c23)ncn1 [Compound 167, N-(6-Methoxypyrimidin-4-yl)-2-(1-methyl-1H-imidazol-2-yl)-5-(pyridin-2-yl)-6-(pyridin-3-yl)pyrrolo[2,1-f][1,2,4]triazin-4-amine]	0%	0%	B* (26-49% activation)
		CO[C@H]1C[C@H](Nc2nc(-c3nccn3C)nn3cc(-c4cccnc4)c(-c4ccccn4)c23)C1 [Compound 168, N-((1r,3r)-3-Methoxycyclobutyl)-2-(1-methyl-1H-imidazol-2-yl)-5-(pyridin-2-yl)-6-(pyridin-3-yl)pyrrolo[2,1-f][1,2,4]triazin-4-amine]	1 to 24%	25 to 49%	0 (0% inhibition)
		COc1ccnc(Nc2nc(-c3nccn3C)nn3cc(-c4cccnc4)c(-c4cccnc4)c23)c1 [Compound 169, N-(4-methoxypyridin-2-yl)-2-(1-methyl-1H-imidazol-2-yl)-5,6-di(pyridin-3-yl)pyrrolo[2,1-f][1,2,4]triazin-4-amine]	1 to 24%	0%	C* (46-84% activation)
